Here are results for 24 compounds from patent publication US8551510B2, “Bed bug control and repellency” (Bedoukian Research, Inc., priority 2009, dated 2013).

SMILES strings stand for the structures. Like-named read-outs stand apart in the source and are kept apart here.

For the assay, the system named is bed bugs. As to the kind of experiment: Choice test with unconcealed bed bugs on filter paper discs, test compound in acetone vs. acetone only (percent repellency). In kind it is in vivo. As to conditions: for percent repellency at 2 hour: 2 hour post-treatment (Table 2). On the procedure: This test was undertaken employing unconcealed bugs. Two semicircular discs of filter paper, 9 cm in radius treated with 1 ml of solution to wet the entire surface, one treated with an acetone solution of the test compound and one only acetone treated were placed on the lid of a Petri dish. Five replicates of ten (10) bed bugs were release into the center of the lids of the Petri dish with a choice of the test compound treated or only acetone treated substrate. The distribution of bed bugs was recorded at ½, […], 2, 6 and 24 hours post-treatment. Paired t-tests were conducted for each treatment to ascertain whether or not there was a statistically significant difference in the number of bed bugs on the treated vs. untreated discs.

[1] abbreviates: chemical at 0.5% in acetone on filter paper, 0.5 hr post-treatment, read-out: percent repellency at 0.5 hr.
Where [2] appears, read: chemical at 0.5% in acetone on filter paper, 1 hr post-treatment, read-out: percent repellency at 1 hr.
Where [3] appears, read: chemical at 0.5% in acetone on filter paper, 6 hr post-treatment, read-out: percent repellency at 6 hr.
Where [4] appears, read: chemical at 0.5% in acetone on filter paper, 24 hr post-treatment, read-out: percent repellency at 24 hr.
[5] abbreviates: chemical at 0.5%, average of 0.5, 1, 6 and 24 hr, read-out: percent repellency, Average.
The mark [6] stands for this setting: chemical at 0.2% in acetone on filter paper, 0.5 hr post-treatment, read-out: percent repellency at 0.5 hr.
The mark [7] stands for this setting: chemical at 0.2% in acetone on filter paper, 1 hr post-treatment, read-out: percent repellency at 1 hr.
Setting [8] is: chemical at 0.2% in acetone on filter paper, 6 hr post-treatment, read-out: percent repellency at 6 hr.
Setting [9] is: chemical at 0.2% in acetone on filter paper, 24 hr post-treatment, read-out: percent repellency at 24 hr.
The mark [10] stands for this setting: chemical at 0.2%, average of 0.5, 1, 6 and 24 hr, read-out: percent repellency, Average.
[11] abbreviates: 0.5 h, read-out: percent repellency at 0.5 hr.
[12] abbreviates: 1 h, read-out: percent repellency at 1 hr.
Setting [13] is: 6 h, read-out: percent repellency at 6 hr.
The mark [14] stands for this setting: 24 h, read-out: percent repellency at 24 hr.
Setting [15] is: read-out: percent repellency, Average.

In the case of `CC1=CCC(C(C)CC2CCCC2=O)CC1` (centres unmarked) [Nectaryl ™, 2-(2-(4-methyl-3-cyclohexen-1-yl)propyl) cyclopentanone], the pest or weed control at 0.5 % by setting is: under setting [1], 87.8%; under setting [2], 95.9%; under setting [3], 100%; under setting [4], 100%; under setting [5], 95.9%.
As to `O=C1CCCC1C1CCCC1` (centres unmarked) [2-Cyclopentylcyclopentanone, 2-cyclopentylcyclopentanone], the pest or weed control at 0.5 % reads like this: under setting [1], 90%; under setting [2], 90%; under setting [3], 76%; under setting [4], 70%; under setting [5], 81%.
On to `CCCCCCC=CC(C)=O` [3-Decen-2-one], for which the pest or weed control at 0.5 % is, setting by setting: under setting [1], 82%; under setting [2], 84%; under setting [3], 78%; under setting [4], 76%; under setting [5], 80%.
Take `C=C(C)C1CCC2=CC(=O)CC(C)C2(C)C1` (centres unmarked) [Nootkatone, 4,4a-dimethyl-6-prop-1-en-2-yl-3,4,5,6,7,8-hexahydronaphthalen-2-one]: the “percent repellency at 2 hour” value (chemical at 0.1%) was determined as 60%. The pest or weed control at 0.5 % under setting [1] is 100%; the pest or weed control at 0.5 % under setting [2] was found to be 100%; the pest or weed control at 0.5 % under setting [3] was found to be 100%; the pest or weed control at 0.5 % under setting [4] was 100%; the pest or weed control at 0.5 % under setting [5] is 100%.
For `CCC(=O)/C(C)=C/C1C(C)CC=CC1(C)C` (centres unmarked) [Dimethylionone, (E)-2-methyl-1-(2,2,6-trimethyl-1-cyclohex-3-enyl)pent-1-en-3-one], the pest or weed control at 0.5 % under setting [1] came to 90%; the pest or weed control at 0.5 % under setting [2] came out at 96%; the pest or weed control at 0.5 % under setting [3] came to 96%; the pest or weed control at 0.5 % under setting [4] turned out to be 92%; the pest or weed control at 0.5 % under setting [5] stood at 93.5%.
Take `CCCCOC(=O)CCC(C)=O` [Butyl levulinate, reference compound]: the pest or weed control at 0.2 % reads like this: under setting [6], 64%; under setting [7], 68%; under setting [8], 62%; under setting [9], 60%; under setting [10], 64%.
As to `CC(=O)C=CC1C(C)=CCCC1(C)C` (stereo not drawn) [Alpha Ionone, 4-(2,6,6-trimethyl-2-cyclohexenyl)-3-buten-2-one], the pest or weed control at 0.5 % came out at 100% under setting [11]; 100% under setting [12]; 100% under setting [13]; 84% under setting [14]; 96% under setting [15].
Regarding `CC(C)CCCC(C)CCC1CCCC1=O` (centres unmarked) [Tetrahydroapritone], where the note is “chemical at 0.2%”, the “percent repellency at 2 hour” value came out at 82%.
`CCC(C)=CCCC(C)=CCC1CCCC1=O` (centres unmarked) [Methyl Apritone, 2-(3,7-dimethyl-2,6-nonadienyl)cyclopentanone]: the pest or weed control at 0.2 % is, setting by setting: under setting [6], 100%; under setting [7], 100%; under setting [8], 100%; under setting [9], 100%; under setting [10], 100%. The “percent repellency at 2 hour” value (chemical at 0.2%) was found to be 90%.
On to `CCCCCCCCCCC(C)=O` [Methyl decyl ketone, 2-dodecanone], for which the pest or weed control at 0.5 % reads like this: under setting [1], 100%; under setting [2], 100%; under setting [3], 100%; under setting [4], 100%; under setting [5], 100%.
As to `CCC(C)CCCC(C)CCC1CCCC1=O` (centres unmarked) [Tetrahydro methyl apritone, 2-(3,7-dimethynonyl)cyclopentanone], the “percent repellency at 2 hour” value (chemical at 0.2%) worked out at 88%.
With `CCCCCC=CCC1CCCC1=O` (centres unmarked) [2-Octenylcyclopentanone, 2-(2-octen-1-yl)cyclopentanone], the pest or weed control at 0.5 % under setting [1] is 100%; the pest or weed control at 0.5 % under setting [2] amounted to 100%; the pest or weed control at 0.5 % under setting [3] was determined as 100%; the pest or weed control at 0.5 % under setting [4] was determined as 100%; the pest or weed control at 0.5 % under setting [5] was determined as 100%.
Turning to `CCCCCCCCCC(C)=O` [Methyl nonyl ketone, methyl nonyl ketone], the pest or weed control at 0.5 % amounted to 85.7% under setting [11]; 84% under setting [12]; 80% under setting [13]; 74% under setting [14]; 80.9% under setting [15].
In the case of `CCCCCCCCCCCC(C)=O` [Methyl undecyl ketone, 2-tridecanone], the pest or weed control at 0.5 % is 100% under setting [1]; 100% under setting [2]; 100% under setting [3]; 100% under setting [4]; 100% under setting [5].
For `CCCCCCCCC(=O)C(C)=O` [2,3-Undecanedione, reference compound], the pest or weed control at 0.5 % amounted to 90% under setting [1]; 60% under setting [2]; 60% under setting [3]; 90% under setting [4]; 75% under setting [5].
Turning to `CC(=O)CCC=C(C)CCC=C(C)C` [Geranylacetone, 6,10-dimethyl-5,9-undecadien-2-one], the pest or weed control at 0.5 % is 100% under setting [1]; 100% under setting [2]; 100% under setting [3]; 100% under setting [4]; 100% under setting [5].
As to `CCCCCC1C(=O)CCC1CC(=O)OCC=C(C)C` (centres unmarked) [Prenyl dihydrojasmonate, 3-methylbut-2-enyl 2-(3-oxo-2-pentylcyclopentyl)acetate], the “percent repellency at 2 hour” value (chemical at 1.0%) is reported as 82%.
Consider `CC1=CCCC(C)(C)C1/C=C/C(=O)CC(C)C` (centres unmarked) [Isobutylionone, (E)-5-Methyl-1-(2,6,6-trimethyl-1-cyclohex-2-enyl) hex-1-en-3-one], for which the pest or weed control at 0.5 % reads like this: under setting [1], 100%; under setting [2], 98%; under setting [3], 94%; under setting [4], 94%; under setting [5], 96.5%.
For the compound `O=C1CCC/C=C\CCCCCCCCCC1` [Cyclohexadec-5-ene-1-one, (5Z) cyclohexadec-5-ene-1-one], the pest or weed control at 0.1 % runs as follows: (chemical at 0.1% in acetone on filter paper, 0.5 hr post-treatment, read-out: percent repellency at 0.5 hr) 94%; (chemical at 0.1% in acetone on filter paper, 1 hr post-treatment, read-out: percent repellency at 1 hr) 94%; (chemical at 0.1% in acetone on filter paper, 6 hr post-treatment, read-out: percent repellency at 6 hr) 100%; (chemical at 0.1% in acetone on filter paper, 24 hr post-treatment, read-out: percent repellency at 24 hr) 100%; (chemical at 0.1%, average of 0.5, 1, 6 and 24 hr, read-out: percent repellency, Average) 97%.
On to `CC(C)=CCCC(C)=CCC1CCCC1=O` (centres unmarked) [2-Geranylcyclopentanone (Apritone), 2-(3,7-dimethylocta-2,6-dienyl)cyclopentan-1-one], for which the pest or weed control at 0.5 % was determined as 100% under setting [1]; 100% under setting [2]; 100% under setting [3]; 100% under setting [4]; 100% under setting [5].
`CCCCCC1CC(=O)C=C(C)C1C(=O)OCC` (centres unmarked) [ethyl 2-methyl-4-oxo-6-pentylcyclohec-2-enecarboxylate]: the “percent repellency at 2 hour” value (chemical at 0.2%) was found to be 62%.
Consider `CC/C=C\CC1C(=O)CCC1CC(=O)OC` (centres unmarked) [Methyl jasmonate, (Z)-methyl 2-(3-oxo-2-(pent-2-enyl)cyclopentyl)acetate], for which the pest or weed control at 0.2 % reads like this: under setting [6], 80%; under setting [7], 90%; under setting [8], 90%; under setting [9], 88%; under setting [10], 87%.
`CCCCCC1C(=O)CCC1CC(=O)OC` (centres unmarked) [Methyl dihydrojasmonate, methyl 2-(3-oxo-2-pentylcyclopentyl)acetate]: the pest or weed control at 0.2 % under setting [6] came to 86%; the pest or weed control at 0.2 % under setting [7] worked out at 96%; the pest or weed control at 0.2 % under setting [8] was determined as 94%; the pest or weed control at 0.2 % under setting [9] worked out at 92%; the pest or weed control at 0.2 % under setting [10] came to 92%. The “percent repellency at 2 hour” value (chemical at 0.2%) worked out at 98%.
For `CC1(C)C2CCC3(C2)C1C(=O)CCC3(C)C` (centres unmarked) [Isolongifolanone, 2,2,7,7-tetramethyltricyclo[6.2.1.01,6]undecan-5-one], the pest or weed control at 0.5 % reads like this: under setting [1], 90%; under setting [2], 88%; under setting [3], 98%; under setting [4], 98%; under setting [5], 93%.
